The record followed here is PubChem BioAssay (NCI).

The TGI is the concentration at which net growth stops. Higher therefore signals less potent growth arrest.

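Cells were grown in 96-well plates and exposed to each compound for 48 hours at five concentrations; endpoints were interpolated linearly between bracketing concentrations, or set to the highest concentration if not reached. TGI: concentration producing complete growth inhibition.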 A value given as a limit tells only on which side of the number the result lay.

Some test systems named below: 786-0 renal; ACHN renal; BT-549 breast; CAKI-1 renal; HCC-2998 colon; IGROV1 ovarian; MCF7 breast; NCI/ADR-RES ovarian; OVCAR-8 ovarian; SK-MEL-28 melanoma.
Holding throughout (assay): DTP human tumour cell line panel, 48 h

As to `CC(C)(C)OC(=O)N1CCC2(CC1)C(=O)NCN2c1ccccc1`, the total growth inhibition concentration (TGI) in the experiment with 786-0 renal, in the experiment with ACHN renal, with BT-549 breast, in the experiment on CAKI-1 renal, in the experiment on HCC-2998 colon and in the experiment with IGROV1 ovarian was over 100 µM in each case. In addition, the TGI in the experiment with MCF7 breast, in the experiment on NCI/ADR-RES ovarian, in the experiment with OVCAR-8 ovarian and in the experiment with SK-MEL-28 melanoma was over 100 µM in each case.

As to `CC1=NN(c2cc(Cl)c(S(=O)(=O)O)cc2Cl)C2(C1)C(Cl)C(=O)N2c1nc2ccccc2s1` (stereo not given), the TGI in the experiment with 786-0 renal, in the experiment on ACHN renal, in the experiment on BT-549 breast, in the experiment on CAKI-1 renal, in the experiment on HCC-2998 colon and with IGROV1 ovarian was over 100 µM throughout. The TGI in the experiment with MCF7 breast, in the experiment with NCI/ADR-RES ovarian, in the experiment with OVCAR-8 ovarian and with SK-MEL-28 melanoma was over 100 µM throughout.

Regarding `FC(F)(Sc1ncccn1)c1nc2ccccc2o1`, the concentration for total growth inhibition (TGI) in the experiment on 786-0 renal, in the experiment on ACHN renal, with BT-549 breast, with CAKI-1 renal, in the experiment on HCC-2998 colon and in the experiment with IGROV1 ovarian was over 100 µM throughout. Also, the TGI in the experiment with MCF7 breast, in the experiment on NCI/ADR-RES ovarian, with OVCAR-8 ovarian and in the experiment with SK-MEL-28 melanoma was over 100 µM each time.

`O=C(c1ccccc1)C1C(c2ccccc2[N+](=O)[O-])N1C1CCCCC1` (stereo not given): the TGI in the experiment with 786-0 renal came to 5.05 µM; in the experiment with ACHN renal, 3.74 µM; in the experiment on BT-549 breast, 32.3 µM; with CAKI-1 renal, 9.5 µM; in the experiment on HCC-2998 colon it was 18 µM; with IGROV1 ovarian, 17.4 µM. Further, the total growth inhibition concentration (TGI) was 15.9 µM with MCF7 breast, over 85.2 µM in the experiment on NCI/ADR-RES ovarian, 3.97 µM with OVCAR-8 ovarian and over 57.7 µM with SK-MEL-28 melanoma.

Turning to `Cc1c(-c2ccccc2)oc(=O)c2ccccc12`, the TGI with 786-0 renal is 51.2 µM; with ACHN renal it was 98.2 µM; in the experiment on BT-549 breast it was 39.2 µM; with CAKI-1 renal it was 53.9 µM; in the experiment on HCC-2998 colon, 37.8 µM; with IGROV1 ovarian, 46.6 µM. In addition, the TGI in the experiment on MCF7 breast was over 100 µM; in the experiment on NCI/ADR-RES ovarian it was 75.4 µM; with OVCAR-8 ovarian, 93 µM; with SK-MEL-28 melanoma, 37.3 µM.

`COC(=O)[C@]1(c2cc3ccccc3[nH]2)CC2CNC1C1OC(C)(C)OC21` (stereo not given in full): the TGI in the experiment with 786-0 renal, in the experiment with ACHN renal, in the experiment with BT-549 breast, in the experiment with CAKI-1 renal, with HCC-2998 colon and in the experiment with IGROV1 ovarian was over 100 µM each time. The TGI in the experiment on MCF7 breast, with NCI/ADR-RES ovarian, in the experiment on OVCAR-8 ovarian and with SK-MEL-28 melanoma was over 100 µM in each case.

Take `COc1ccc(Nc2nc(N)c(C(=O)c3ccco3)s2)cc1`: the TGI in the experiment on 786-0 renal was over 80.1 µM; in the experiment on ACHN renal, over 100 µM; in the experiment on BT-549 breast it was over 100 µM; with CAKI-1 renal, over 100 µM; in the experiment on HCC-2998 colon, 71.9 µM; in the experiment on IGROV1 ovarian, over 100 µM. In addition, the TGI was over 100 µM in the experiment on MCF7 breast, over 94.8 µM in the experiment on NCI/ADR-RES ovarian, over 100 µM in the experiment on OVCAR-8 ovarian and over 100 µM in the experiment with SK-MEL-28 melanoma.

For the molecule `COc1cc(C2C3=C(NC(=O)C2C#N)c2ccc4ccccc4c2OCC3)cc(OC)c1OC` (stereo not given), the TGI was over 100 µM in the experiment with 786-0 renal; 30.2 µM in the experiment with ACHN renal; 42.9 µM in the experiment on BT-549 breast; 45.7 µM in the experiment with CAKI-1 renal; 65.2 µM in the experiment on HCC-2998 colon; 36.9 µM in the experiment on IGROV1 ovarian. For the same molecule, the TGI with MCF7 breast, with NCI/ADR-RES ovarian, in the experiment with OVCAR-8 ovarian and with SK-MEL-28 melanoma was over 100 µM throughout.

Take `Clc1ccc(C2=CC(c3ccccc3)N3C(=N[C@H]4CCCC[C@@H]43)N2)cc1` (stereo not given in full): the TGI in the experiment on 786-0 renal was found to be 10.9 µM; in the experiment with ACHN renal, 17.8 µM; with BT-549 breast, 21.3 µM; in the experiment on CAKI-1 renal, 26.9 µM; in the experiment with HCC-2998 colon, 5.08 µM; in the experiment with IGROV1 ovarian it was 13.6 µM. In addition, the TGI with MCF7 breast was determined as 13.2 µM; in the experiment with NCI/ADR-RES ovarian, 19.6 µM; in the experiment with OVCAR-8 ovarian, 11.4 µM; with SK-MEL-28 melanoma it was 11 µM.

Consider `C[N+](C)([O-])C12CC3CC(CC(C3)C1)C2`, for which the TGI in the experiment with 786-0 renal, in the experiment with ACHN renal, in the experiment on BT-549 breast, in the experiment with CAKI-1 renal, in the experiment with HCC-2998 colon and in the experiment with IGROV1 ovarian was over 100 µM each time. Besides, the TGI with MCF7 breast, in the experiment on NCI/ADR-RES ovarian, in the experiment with OVCAR-8 ovarian and with SK-MEL-28 melanoma was over 100 µM each time.

`O=[N+]([O-])C(/C=C(\Cl)[N+](=O)[O-])=C(Nc1ccccc1)Nc1ccccc1`: the TGI in the experiment on 786-0 renal is 14.3 µM; in the experiment with ACHN renal it was 31.9 µM; in the experiment on BT-549 breast it was 20.7 µM; in the experiment with CAKI-1 renal, 26.8 µM; with HCC-2998 colon it was 37.2 µM; in the experiment with IGROV1 ovarian, 31 µM. The TGI worked out at 14.6 µM with MCF7 breast, 58.5 µM with NCI/ADR-RES ovarian, 21.6 µM with OVCAR-8 ovarian and 24.6 µM in the experiment on SK-MEL-28 melanoma.

With `CC(CSc1nc2c(c(=N)n1-c1ccccc1)c(=S)n(-c1ccccc1)c(=S)n2-c1ccccc1)CN(C)C` (stereo not given), the TGI in the experiment with 786-0 renal is 2.37 µM; with ACHN renal, 3.15 µM; with BT-549 breast, 3.52 µM; in the experiment with CAKI-1 renal it was 2.97 µM; in the experiment with HCC-2998 colon, 2.7 µM; in the experiment with IGROV1 ovarian, 2.79 µM. In addition, the TGI is 1.05 µM in the experiment on MCF7 breast, 11.8 µM with NCI/ADR-RES ovarian, 3 µM with OVCAR-8 ovarian and 4.67 µM in the experiment with SK-MEL-28 melanoma.

On to `CN(C)c1ccc(/C=C2\N=C(c3ccccc3)N(c3nc4ccc(Sc5ccccc5)cc4[nH]3)C2=O)cc1`, for which the TGI is over 100 µM in the experiment with 786-0 renal; over 100 µM with ACHN renal; over 100 µM in the experiment with BT-549 breast; over 100 µM with CAKI-1 renal; 33.5 µM in the experiment on HCC-2998 colon; over 100 µM in the experiment on IGROV1 ovarian. Further, the TGI in the experiment with MCF7 breast was over 100 µM; with NCI/ADR-RES ovarian it was 85.3 µM; with OVCAR-8 ovarian, over 100 µM; with SK-MEL-28 melanoma it was over 100 µM.
